Where “and” joins values, the source holds several entries; their conditions need not be identical. Identical values can stand only once.
Molecular target: T1, Fatty-acid amide hydrolase 1 (Homo sapiens, UniProt O00519)
T1 sequence (O00519 whole entry): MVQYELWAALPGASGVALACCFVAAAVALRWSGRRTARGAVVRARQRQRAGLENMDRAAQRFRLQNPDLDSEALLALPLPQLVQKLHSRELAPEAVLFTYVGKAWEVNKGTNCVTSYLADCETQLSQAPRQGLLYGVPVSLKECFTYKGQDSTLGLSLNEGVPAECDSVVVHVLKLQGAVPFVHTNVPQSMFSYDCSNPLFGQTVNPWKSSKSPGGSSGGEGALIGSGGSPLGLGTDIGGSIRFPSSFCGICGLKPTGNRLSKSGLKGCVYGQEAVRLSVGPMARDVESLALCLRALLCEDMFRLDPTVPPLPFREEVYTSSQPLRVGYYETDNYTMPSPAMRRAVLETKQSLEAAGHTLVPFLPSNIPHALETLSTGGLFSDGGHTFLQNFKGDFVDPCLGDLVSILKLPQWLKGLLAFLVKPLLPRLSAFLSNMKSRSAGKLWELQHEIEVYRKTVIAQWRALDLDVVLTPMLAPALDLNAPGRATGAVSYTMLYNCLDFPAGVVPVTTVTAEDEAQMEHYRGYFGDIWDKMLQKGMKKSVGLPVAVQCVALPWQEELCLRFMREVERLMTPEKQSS
Experiment: Inhibition Assay
Conditions: pH 8; 22 °C
Experimental: the enzyme activity of recombinant human FAAH was measured according to published procedures with minor modifications by either a fluorescent assay using D-AMC or a radioactive assay using tritium-labeled anandamide (3H-anandamide)51 as substrate.

SMILES: COc1cccc2sc(-c3ccc(NC(=O)C4CCN(S(=O)(=O)c5cccs5)CC4)cc3)nc12 [Benzothiazole-based analogue, 1]
- IC50: 2 nM and 2.1 nM and 2.3 nM and 2.5 nM and 5.1 nM and 3.8 nM
